Experimental data published in PubChem BioAssay AID330 (DTP/NCI, 2004).
Where “and” joins values, the source holds several entries; their conditions need not be identical. Equal values may be shown once. Inconclusive results and toxic doses are left out. How the source made its calls: active means survival T/C of 150% or more; inactive means T/C below 125% in these data.

Test system: P388 leukemia ip, CD2F1 mice, survival T/C
Assay: NCI In Vivo Anticancer Drug Screen. Data for tumor model P388 Leukemia (intraperitoneal) in CD2F1 (CDF1) mice
Settings: endpoint: median survival time, higher = longer survival
How it was run: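 Mice carrying the transplanted tumor received test compound or vehicle. Survival was recorded in each group, and the value is the treated-group measurement divided by that of the vehicle-treated control group.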

[1] = dose: 25.0 mg/kg/injection, schedule: Q04DX003 (ip), vehicle: Klucel (hydroxypropylcellulose) (HPC)
[2] = dose: 50.0 mg/kg/injection, schedule: Q04DX003 (ip), vehicle: Klucel (hydroxypropylcellulose) (HPC)
[3] = dose: 50.0 mg/kg/injection, schedule: Q01DX009 (ip), vehicle: saline with Tween-80
[4] = dose: 100.0 mg/kg/injection, schedule: Q01DX009 (ip), vehicle: saline with Tween-80
[5] = dose: 50.0 mg/kg/injection, schedule: Q01DX005 (ip), vehicle: Klucel (hydroxypropylcellulose) (HPC)
[6] = dose: 100.0 mg/kg/injection, schedule: Q01DX005 (ip), vehicle: Klucel (hydroxypropylcellulose) (HPC)
[7] = dose: 200.0 mg/kg/injection, schedule: Q01DX005 (ip), vehicle: Klucel (hydroxypropylcellulose) (HPC)
[8] = dose: 60.0 mg/kg/injection, schedule: Q01DX005 (ip), vehicle: saline with Tween-80
[9] = dose: 120.0 mg/kg/injection, schedule: Q01DX005 (ip), vehicle: saline with Tween-80
[10] = dose: 240.0 mg/kg/injection, schedule: Q01DX005 (ip), vehicle: saline with Tween-80
[11] = dose: 16.0 mg/kg/injection, schedule: Q01DX009 (ip), vehicle: Klucel (hydroxypropylcellulose) (HPC)
[12] = dose: 32.0 mg/kg/injection, schedule: Q01DX009 (ip), vehicle: Klucel (hydroxypropylcellulose) (HPC)
[13] = dose: 200.0 mg/kg/injection, schedule: Q01DX009 (ip), vehicle: saline with Tween-80
[14] = dose: 100.0 mg/kg/injection, schedule: Q01DX001 (ip), vehicle: saline with Tween-80
[15] = dose: 200.0 mg/kg/injection, schedule: Q01DX001 (ip), vehicle: saline with Tween-80
[16] = dose: 400.0 mg/kg/injection, schedule: Q01DX001 (ip), vehicle: saline with Tween-80
[17] = dose: 60.0 mg/kg/injection, schedule: Q01DX005 (ip), vehicle: Klucel (hydroxypropylcellulose) (HPC)
[18] = dose: 120.0 mg/kg/injection, schedule: Q01DX005 (ip), vehicle: Klucel (hydroxypropylcellulose) (HPC)

Measured: T/C

C/C(=N\NC(=S)N1CCCCCCCCCCCC1)c1ccccn1
inactive: dose: 6.25 mg/kg/injection, schedule: Q04DX003 (ip), vehicle: Klucel (hydroxypropylcellulose) (HPC) 101 % of control | dose: 12.5 mg/kg/injection, schedule: Q04DX003 (ip), vehicle: Klucel (hydroxypropylcellulose) (HPC) 100 % of control and 102 % of control and 117 % of control | [1] 100 % of control and 113 % of control and 120 % of control | [2] 93 % of control

CCC[P+](CCC)(CCC)CCCCCCCCCC[P+](CCC)(CCC)CCC
inactive: dose: 0.19 mg/kg/injection, schedule: Q01DX009 (ip), vehicle: saline 106 % of control | dose: 0.39 mg/kg/injection, schedule: Q01DX009 (ip), vehicle: saline 100 % of control | dose: 0.79 mg/kg/injection, schedule: Q01DX009 (ip), vehicle: saline 88 % of control

N#Cc1cc(Cl)ccc1[N+](=O)[O-]
inactive: [3] 102 % of control | [4] 103 % of control

CC(C)=CCN1CCC2(C)c3cc(O)ccc3CCC2C1 (configuration not stated)
inactive: [5] 94 % of control | [6] 104 % of control | [7] 94 % of control

O=S(=O)(Nc1cc(C(F)(F)F)ccc1Cl)c1ccc(F)cc1
inactive: [8] 104 % of control | [9] 96 % of control | [10] 100 % of control

Cc1cc2oc(=O)c3c(c2c(O)c1CN1CCCC1)CCCC3
inactive: [11] 97 % of control | [12] 101 % of control | dose: 64.0 mg/kg/injection, schedule: Q01DX009 (ip), vehicle: Klucel (hydroxypropylcellulose) (HPC) 103 % of control | dose: 128.0 mg/kg/injection, schedule: Q01DX009 (ip), vehicle: Klucel (hydroxypropylcellulose) (HPC) 97 % of control

COc1ccc(C(c2cc3c(cc2O)OCO3)N2CCN(C(c3ccc(OC)c(O)c3)c3cc4c(cc3O)OCO4)CC2)cc1O (configuration not stated)
inactive: [8] 96 % of control | [9] 101 % of control | [10] 112 % of control

O=C(CCCCl)Oc1ccccc1
inactive: dose: 100.0 mg/kg/injection, schedule: Q04DX003 (ip), vehicle: saline with Tween-80 100 % of control | dose: 200.0 mg/kg/injection, schedule: Q04DX003 (ip), vehicle: saline with Tween-80 109 % of control | dose: 400.0 mg/kg/injection, schedule: Q04DX003 (ip), vehicle: saline with Tween-80 104 % of control

O=C(NN(c1ccccc1)c1ccccc1)c1ccccc1[N+](=O)[O-]
inactive: [3] 93 % of control | [4] 104 % of control | [13] 93 % of control

C=CC1CCC[S+]1CC(=O)C(Cl)(Cl)Cl (configuration not stated)
inactive: [14] 102 % of control | [15] 109 % of control

CNC(=O)OCc1nc(-c2ccccc2)sc1COC(=O)NC
inactive: dose: 12.5 mg/kg/injection, schedule: Q01DX005 (ip), vehicle: distilled water + Tween-80 94 % of control | dose: 25.0 mg/kg/injection, schedule: Q01DX005 (ip), vehicle: distilled water + Tween-80 93 % of control

O=C1OC(COCc2ccccc2)C/C1=C\c1ccc2c(c1)OCO2 (configuration not stated)
inactive: dose: 100.0 mg/kg/injection, schedule: Q04DX002 (ip), vehicle: saline with Tween-80 95 % of control | dose: 200.0 mg/kg/injection, schedule: Q04DX002 (ip), vehicle: saline with Tween-80 86 % of control | dose: 400.0 mg/kg/injection, schedule: Q04DX002 (ip), vehicle: saline with Tween-80 86 % of control

O=[N+]([O-])c1ccc(NN=C2CCCCC2)c([N+](=O)[O-])c1
inactive: [1] 103 % of control | [2] 104 % of control | dose: 100.0 mg/kg/injection, schedule: Q04DX003 (ip), vehicle: Klucel (hydroxypropylcellulose) (HPC) 105 % of control | dose: 200.0 mg/kg/injection, schedule: Q04DX003 (ip), vehicle: Klucel (hydroxypropylcellulose) (HPC) 112 % of control

CCOC(=O)Cn1c(=S)sc2ccccc21
inactive: dose: 25.0 mg/kg/injection, schedule: Q01DX009 (ip), vehicle: saline with Tween-80 91 % of control | [3] 89 % of control | [4] 99 % of control | [13] 91 % of control

Nc1nc(N)c(Cc2ccncc2)cc1Cc1ccncc1
inactive: [5] 112 % of control | [6] 101 % of control | [7] 111 % of control

CC(C)(C)c1ccc(S(=O)(=O)C[CH2][Sn]([CH3])([CH3])[CH3])cc1
inactive: dose: 6.25 mg/kg/injection, schedule: Q01DX009 (ip), vehicle: saline 104 % of control | dose: 12.5 mg/kg/injection, schedule: Q01DX009 (ip), vehicle: saline 87 % of control

CCOC(=O)C(C)(C(=O)c1ccccc1)C(=O)C(C)(C)C (configuration not stated)
inactive: dose: 75.0 mg/kg/injection, schedule: Q01DX009 (ip), vehicle: saline with Tween-80 107 % of control | dose: 150.0 mg/kg/injection, schedule: Q01DX009 (ip), vehicle: saline with Tween-80 103 % of control | dose: 300.0 mg/kg/injection, schedule: Q01DX009 (ip), vehicle: saline with Tween-80 115 % of control

COC(=O)/C(=C/C=C(c1ccccc1)c1ccccc1)N(C(C)=O)C(C)=O
inactive: [14] 104 % of control | [15] 104 % of control | [16] 96 % of control

Cc1ccc(C(=O)Nc2ccc(N(CCCl)CCCl)cc2)cc1
inactive: dose: 6.25 mg/kg/injection, schedule: Q01DX001 (ip), vehicle: Klucel (hydroxypropylcellulose) (HPC) 102 % of control | dose: 12.5 mg/kg/injection, schedule: Q01DX001 (ip), vehicle: Klucel (hydroxypropylcellulose) (HPC) 108 % of control | dose: 25.0 mg/kg/injection, schedule: Q01DX001 (ip), vehicle: Klucel (hydroxypropylcellulose) (HPC) 110 % of control

O=C1/C(=C\c2ccc3c(c2)OCO3)SC(=S)N1CCCN1CCOCC1
inactive: dose: 50.0 mg/kg/injection, schedule: Q01DX005 (ip), vehicle: saline with Tween-80 92 % of control | dose: 100.0 mg/kg/injection, schedule: Q01DX005 (ip), vehicle: saline with Tween-80 90 % of control | dose: 200.0 mg/kg/injection, schedule: Q01DX005 (ip), vehicle: saline with Tween-80 93 % of control

C=C1C(=O)OC2/C=C(/COC(=O)CCCCC)CCC(OCC)C3=CC(OC3=O)C12 (configuration not stated)
inactive: dose: 4.0 mg/kg/injection, schedule: Q01DX009 (ip), vehicle: Klucel (hydroxypropylcellulose) (HPC) 105 % of control | dose: 8.0 mg/kg/injection, schedule: Q01DX009 (ip), vehicle: Klucel (hydroxypropylcellulose) (HPC) 105 % of control | [11] 108 % of control | [12] 123 % of control

c1ccc2c(c1)OCc1nccn1-2
inactive: [17] 99 % of control | [18] 100 % of control

O=C(O)CCC(=O)NCCOC(=O)CCC(=O)O
inactive: dose: 50.0 mg/kg/injection, schedule: Q01DX009 (ip), vehicle: saline 99 % of control | dose: 100.0 mg/kg/injection, schedule: Q01DX009 (ip), vehicle: saline 104 % of control | dose: 200.0 mg/kg/injection, schedule: Q01DX009 (ip), vehicle: saline 106 % of control

C(=Nc1cccc2ccccc12)Nc1cccc2ccccc12.[Cu+2]
inactive: [3] 96 % of control | [4] 98 % of control | [13] 95 % of control

O=C(O)c1ccccc1Nc1ccccc1[N+](=O)[O-]
inactive: dose: 50.0 mg/kg/injection, schedule: Q04DX003 (ip), vehicle: saline 94 % of control | dose: 100.0 mg/kg/injection, schedule: Q04DX003 (ip), vehicle: saline 99 % of control | dose: 200.0 mg/kg/injection, schedule: Q04DX003 (ip), vehicle: saline 102 % of control | dose: 400.0 mg/kg/injection, schedule: Q04DX003 (ip), vehicle: saline 105 % of control

COC(=O)c1nc(N)nc(C(=O)OC)c1C(=O)c1ccccn1
inactive: [17] 101 % of control | [18] 99 % of control

Cc1ccc(S(=O)(=O)NC(=S)c2ccccc2C(=S)NS(=O)(=O)c2ccc(C)cc2)cc1
inactive: [14] 103 % of control | [15] 110 % of control | [16] 104 % of control

COC(=O)c1cc(=O)nc(NNC(C)=O)s1
inactive: [5] 103 % of control | [6] 96 % of control | [7] 106 % of control

CC(N)(CSCc1ccccc1)C(=O)O (configuration not stated)
inactive: dose: 25.0 mg/kg/injection, schedule: Q01DX009 (ip), vehicle: Klucel (hydroxypropylcellulose) (HPC) 100 % of control | dose: 50.0 mg/kg/injection, schedule: Q01DX009 (ip), vehicle: Klucel (hydroxypropylcellulose) (HPC) 103 % of control | dose: 100.0 mg/kg/injection, schedule: Q01DX009 (ip), vehicle: Klucel (hydroxypropylcellulose) (HPC) 107 % of control
